The target of test [1] is PDI (Homo sapiens, UniProt P07237). The experiment in a line: PDI activity assay. It is filed as biochemical. The conditions noted are these: 100 μM. The text has this:
(§1) FIG. 17(A-F) is an exemplary embodiment of identification of novel ERO1α inhibitors by high throughput screening in accordance with the present disclosure. FIG. 17A: A scheme of an ERO1α activity assay. FIG. 17B: Screening of chemical libraries in the ERO1α activity assay. FIG. 17C: The inhibitory effect of selected compounds on ERO1α activity. FIG. 17D: The inhibitory effect of selected compounds on PDI activity. FIG. 17E: The inhibitory effect of selected compounds on H2O2 activity. FIG. 17F: The inhibitory effect of selected compounds on thiol-reacting activity. The data represent the mean±SD (n=3). *P<0.05, **P<0.01, ***P<0.001, and ****P<0.0001 vs. vehicle control, Student's t-test.
(§2) To identify a novel ERO1α inhibitor, 5800 compounds were screened using an ERO1α activity assay (FIG. 17A and FIG. 17B). […] The selected compounds were further tested in assays measuring PDI, antioxidant, and thiol-reacting activities (FIG. 17D through FIG. 17F). […] B12 inhibited P-selectin exposure and αIIbβ3 activation in agonist-activated mouse and human platelets in a concentration-dependent manner (FIG. 18B through FIG. 18E).

Test [2] is described as follows: thiol-reacting (GSH) activity assay. Conditions: 100 μM. It is filed as biochemical.
Source text: as §1, §2

A short description of test [3]: H2O2 (antioxidant) activity assay. It is filed as biochemical. The conditions noted are these: 100 μM.
Source text: as §1, §2

Test [4] addresses T1, MAO-A (monoamine oxidase A) (Homo sapiens, UniProt P21397).
T1 sequence (P21397 1-527): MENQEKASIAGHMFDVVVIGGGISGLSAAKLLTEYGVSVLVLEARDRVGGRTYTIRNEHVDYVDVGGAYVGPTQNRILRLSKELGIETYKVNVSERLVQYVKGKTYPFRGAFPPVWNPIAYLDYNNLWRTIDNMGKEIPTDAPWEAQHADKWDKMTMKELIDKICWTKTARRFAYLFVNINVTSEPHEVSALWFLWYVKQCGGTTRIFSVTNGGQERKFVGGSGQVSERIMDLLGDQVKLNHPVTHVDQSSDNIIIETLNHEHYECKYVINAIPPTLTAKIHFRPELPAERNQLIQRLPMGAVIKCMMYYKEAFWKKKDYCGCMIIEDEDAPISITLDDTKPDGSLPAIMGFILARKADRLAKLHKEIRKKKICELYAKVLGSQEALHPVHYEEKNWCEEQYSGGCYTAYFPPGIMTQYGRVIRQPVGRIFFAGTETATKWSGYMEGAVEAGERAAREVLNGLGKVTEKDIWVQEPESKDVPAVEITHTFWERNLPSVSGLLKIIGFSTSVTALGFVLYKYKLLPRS
Briefly: MAO-A activity assay. It is filed as biochemical. The conditions noted are these: 100 μM.

The target of test [5] is T2, ERO1α (Homo sapiens, UniProt Q96HE7).
T2 sequence (Q96HE7 24-468): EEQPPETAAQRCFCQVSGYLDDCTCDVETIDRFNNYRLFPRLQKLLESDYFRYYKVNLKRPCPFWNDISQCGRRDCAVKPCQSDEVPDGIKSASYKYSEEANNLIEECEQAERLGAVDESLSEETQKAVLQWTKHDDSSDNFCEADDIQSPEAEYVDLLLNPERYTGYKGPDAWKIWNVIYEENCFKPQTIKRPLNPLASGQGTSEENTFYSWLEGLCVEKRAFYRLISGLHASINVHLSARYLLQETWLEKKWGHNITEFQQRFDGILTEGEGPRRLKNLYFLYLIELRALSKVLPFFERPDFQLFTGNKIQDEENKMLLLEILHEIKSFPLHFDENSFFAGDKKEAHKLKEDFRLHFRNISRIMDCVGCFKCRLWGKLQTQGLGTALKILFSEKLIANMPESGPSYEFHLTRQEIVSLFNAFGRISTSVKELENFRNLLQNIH
Briefly: ERO1α activity assay. It is filed as biochemical. Conditions: 20 μM.
Source text: as §1, §2

In test [6] the test system is Ero1α-null platelets. The experiment in a line: Platelet aggregation, Ero1α-null platelets. The class given is cell-based, mouse. The conditions noted are these: 50 μg/mL protein, 0.025 U/mL thrombin. On the procedure:
FIG. 7(A-L) is an exemplary embodiment of crucial intracellular ERO1α (endoplasmic reticulum oxidoreductase 1a) for platelet activation, aggregation, and thrombus formation in accordance with the present disclosure. FIG. 7A: Ex vivo platelet thrombus formation in a flow chamber assay. Adherent and aggregated platelets were stained with rhodamine-conjugated phalloidin and imaged by confocal microscopy. Representative images (bar, 10 μm). Surface coverage and thrombus volume were measured (mean±SD, n=4). FIG. 7(B-E): Aggregation and ATP secretion of wild type (WT) and Ero1α-null platelets were induced by 0.025 U/mL thrombin, 0.05 μg/mL CRP (collagen-related peptide), 0.5 μM A23187, or 2.5 μM ADP. Platelet aggregation (i) and ATP secretion (ii). FIG. 7F: Ero1α-null platelets were pretreated with 50 μg/mL wtERO1α or wtPDI and then with 0.025 U/mL thrombin. Quantification graphs of aggregation and ATP secretion are presented as the mean±SD (n=3-4). FIG. 7G and FIG. 7H: P-selectin exposure and αIIbβ3 integrin activation of WT and Ero1α-null platelets were analyzed by flow cytometry. The data are presented as the geometric mean fluorescence intensity (MFI) value (mean±SD, n=3-4). FIG. 7I: WT and Ero1α-null platelets were treated with or without 0.025 U/mL thrombin for 1 minute in an aggregometer. The lysates were immunoprecipitated with control IgG or anti-β3 antibodies and subjected to immunoblotting with antibodies against talin1 or β3 and densitometric analysis (mean±SD, n=3). FIG. 7J: WT and Ero1α-null platelets were treated with or without 0.025 U/mL thrombin, followed by transmission electron microscopy. The original magnification was 34 800, and the extension was 313 000. Bar, 500 nm. FIG. 7K and FIG. 7L: Intravital microscopy was performed to determine the effect of 15E9 (1-3 μg/g body weight [BW]) and a blocking anti-PDI (protein disulfide isomerase) antibody (BD34, 3 μg/g BW) on platelet thrombus formation and fibrin generation at the site of laser-induced cremaster arteriolar injury (n=27-40 arterioles in 6 mice per group). The n indicates biological replicates. P values determined by unpaired Student t test (FIG. 7(A-E) and FIG. 7(G-1)), ANOVA and Dunnett test (FIG. 7F), or Mann-Whitney U test (FIG. 7K and FIG. 7L).
FIG. 9(A-C) is an exemplary embodiment of EN460 inhibiting thrombin-induced aggregation of mouse and human platelets in accordance with the present disclosure. […] P values determined by ANOVA and Dunnett's test (FIG. 9(A-B)) or Student's t-test (FIG. 9C).
FIG. 10(A-E) is an exemplary embodiment of 15E9 not affecting platelet activation and aggregation in accordance with the present disclosure. […] P values determined by unpaired Student's t-test (vs. mIgG1). […]

PDI, sequence (P07237 18-508, species assumed): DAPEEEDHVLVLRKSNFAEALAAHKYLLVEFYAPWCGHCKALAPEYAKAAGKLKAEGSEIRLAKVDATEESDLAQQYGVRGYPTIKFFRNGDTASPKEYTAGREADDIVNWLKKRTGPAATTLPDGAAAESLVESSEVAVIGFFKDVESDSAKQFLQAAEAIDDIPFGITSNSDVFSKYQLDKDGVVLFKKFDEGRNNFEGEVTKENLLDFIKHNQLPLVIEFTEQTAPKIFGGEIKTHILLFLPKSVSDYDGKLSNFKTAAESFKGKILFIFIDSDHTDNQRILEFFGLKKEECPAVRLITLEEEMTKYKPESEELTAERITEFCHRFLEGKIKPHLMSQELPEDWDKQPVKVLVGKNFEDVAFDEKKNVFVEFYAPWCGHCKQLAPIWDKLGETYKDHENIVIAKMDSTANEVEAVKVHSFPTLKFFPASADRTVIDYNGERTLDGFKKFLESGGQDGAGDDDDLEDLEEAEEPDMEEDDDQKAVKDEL

On to `O=C(COc1ccccc1)N1c2ccccc2Sc2ccccc21` [B12-3], for which the “PDI inhibition at 100 μM (%)” value in test [1] came out at 10.2 ± 3%. In addition, the “GSH inhibition at 100 μM (%)” value in test [2] came to 22.3 ± 7%. In test [3], the “H2O2 inhibition at 100 μM (%)” value was determined as 2.1 ± 1%. Also, the “MAO-A inhibition at 100 μM (%)” value in test [4] amounted to 24.8 ± 4%. The “ERO1α inhibition at 20 μM (%)” value in test [5] is 57.0 ± 19%.
With `O=C(COc1ccc(O)cc1)N1c2ccccc2Sc2ccccc21` [B12-4], the “PDI inhibition at 100 μM (%)” value in test [1] stood at 13.2 ± 3%. Also, the “GSH inhibition at 100 μM (%)” value in test [2] worked out at 27.2 ± 7%. The “H2O2 inhibition at 100 μM (%)” value in test [3] is 6.0 ± 2%. Moreover, the “MAO-A inhibition at 100 μM (%)” value in test [4] is 34.8 ± 4%. Besides, the “ERO1α inhibition at 20 μM (%)” value in test [5] turned out to be 74.0 ± 17%.
In the case of `N#Cc1cc(SCC(=O)N2c3ccccc3Sc3ccccc32)nc2c1CCCC2` [B12-6], the “PDI inhibition at 100 μM (%)” value in test [1] worked out at 20.2 ± 4%. Besides, in test [2], the “GSH inhibition at 100 μM (%)” value is given as 30.1 ± 10%. Further, in test [3], the “H2O2 inhibition at 100 μM (%)” value came to 1.7 ± 1%. The “MAO-A inhibition at 100 μM (%)” value in test [4] was 37.7 ± 8%. Also, the “ERO1α inhibition at 20 μM (%)” value in test [5] is 87.6 ± 17%.
On to `CCCn1c(SCC(=O)N2c3ccccc3Sc3ccccc32)nc2ccccc21` [B12-7], for which the “PDI inhibition at 100 μM (%)” value in test [1] stood at 30.3 ± 8%. For the same compound, the “GSH inhibition at 100 μM (%)” value in test [2] is recorded as 33.3 ± 10%. In test [3], the “H2O2 inhibition at 100 μM (%)” value turned out to be 1.9 ± 1%. For the same compound, the “MAO-A inhibition at 100 μM (%)” value in test [4] amounted to 39.1 ± 8%. Also, the “ERO1α inhibition at 20 μM (%)” value in test [5] was 75.5 ± 20%.
Turning to `O=C(COc1nc2ccccc2s1)n1c2ccccc2c2ccccc21` [B12-8*], the “PDI inhibition at 100 μM (%)” value in test [1] is given as 8.6 ± 3%. In addition, in test [2], the “GSH inhibition at 100 μM (%)” value was determined as 13.6 ± 3%. Besides, the “H2O2 inhibition at 100 μM (%)” value in test [3] was found to be 0.3 ± 0.1%. Moreover, in test [4], the “MAO-A inhibition at 100 μM (%)” value worked out at 22.3 ± 5%. Also, the “ERO1α inhibition at 20 μM (%)” value in test [5] is recorded as 48.6 ± 10%.
For `Cc1nc2ccccc2nc1SCC(=O)N1c2ccccc2Sc2ccccc21` [B12-11], in that order: 23.1 ± 5%, 33.5 ± 4%, 2.3 ± 1%, 28.1 ± 5% and 82.3 ± 20%.
Turning to `COc1ccc2nc(SCC(=O)n3c4ccccc4c4ccccc43)nc(C)c2c1` [B12-13*], the “PDI inhibition at 100 μM (%)” value in test [1] is reported as 19.1 ± 4%. Further, in test [2], the “GSH inhibition at 100 μM (%)” value was 33.1 ± 4%. The “H2O2 inhibition at 100 μM (%)” value in test [3] was determined as 4.2 ± 1%. In addition, in test [4], the “MAO-A inhibition at 100 μM (%)” value is 36.7 ± 8%. For the same compound, in test [5], the “ERO1α inhibition at 20 μM (%)” value is 53.7 ± 9%.
`CCCn1c2ccccc2c2nnc(SCC(=O)N3c4ccccc4Sc4ccccc43)nc21` [B12-14]: in test [1], the “PDI inhibition at 100 μM (%)” value is recorded as 21.4 ± 6%. The “GSH inhibition at 100 μM (%)” value in test [2] came to 31.9 ± 5%. Besides, the “H2O2 inhibition at 100 μM (%)” value in test [3] was 3.4 ± 1%. In test [4], the “MAO-A inhibition at 100 μM (%)” value is recorded as 28.3 ± 5%. For the same compound, the “ERO1α inhibition at 20 μM (%)” value in test [5] is on record as 59.0 ± 6%.
As for `CCCc1cc(O)nc(SCC(=O)N2c3ccccc3Sc3ccccc32)n1` [B12-16], in test [1], the “PDI inhibition at 100 μM (%)” value is on record as 11.9 ± 3%. In addition, the “GSH inhibition at 100 μM (%)” value in test [2] amounted to 21.9 ± 6%. The “H2O2 inhibition at 100 μM (%)” value in test [3] stood at 80.0 ± 18%. Also, the “MAO-A inhibition at 100 μM (%)” value in test [4] is recorded as 34.3 ± 6%. In test [5], the “ERO1α inhibition at 20 μM (%)” value worked out at 11.5 ± 3%.
As for `COc1cc(O)nc(SCC(=O)N2c3ccccc3Sc3ccccc32)n1` [B12-18], the “PDI inhibition at 100 μM (%)” value in test [1] is reported as 12.4 ± 5%. Further, the “GSH inhibition at 100 μM (%)” value in test [2] worked out at 25.9 ± 5%. Moreover, the “H2O2 inhibition at 100 μM (%)” value in test [3] was 0.2 ± 0.1%. The “MAO-A inhibition at 100 μM (%)” value in test [4] stood at 37.5 ± 7%. In addition, the “ERO1α inhibition at 20 μM (%)” value in test [5] is on record as 83.9 ± 16%.
Regarding `Cc1cc(O)nc(SCC(=O)N2c3ccccc3Sc3ccccc32)n1` [B12-20], the “PDI inhibition at 100 μM (%)” value in test [1] is recorded as 6.7 ± 2%. For the same compound, in test [2], the “GSH inhibition at 100 μM (%)” value was 10.2 ± 2%. Also, the “H2O2 inhibition at 100 μM (%)” value in test [3] came out at 2.3 ± 1%. In addition, the “MAO-A inhibition at 100 μM (%)” value in test [4] worked out at 50.2 ± 7%. In addition, in test [5], the “ERO1α inhibition at 20 μM (%)” value is 82.3 ± 15%.
On the same counts, the results for `O=C(COc1nc2ccccc2s1)N1c2ccccc2Sc2ccccc21` [B12-22] are 38.5 ± 8%, 62.5 ± 7%, 4.9 ± 1%, 28.8 ± 6% and 60.5 ± 8%.
Regarding wtPDI: recombinant wild-type PDI, in test [6], the “rescue of the defect in Ero1α-null platelet aggregation” value is recorded as “did not rescue”.

Values taken from patent publication US20240366624A1, “METHODS AND COMPOSITIONS FOR TREATING THROMBOTIC DISEASE” (Washington University, priority 2023, published 2024).
